From patent publication US20120135091A1, “METHODS AND COMPOSITIONS FOR ENHANCING LIFESPAN INVOLVING SIRTUIN-MODULATING COMPOUNDS AND CHALCOGENIDES” (priority 2007, published 2012)
Read-outs that look alike come from different tables or passages of the source.

Tests used:
C57BL/6 mice [1] = test system: C57BL/6 mice
Description: In one set of experiments, compositions were tested in male C57BL/6 jugular vein catheterized (JVC) mice, 5-6 weeks old (Taconic), by infusing the animals with the liquid sulfide liquid compositions using 1 mL or 5 mL Luer-Lok syringes (Becton Dickison). An IPTT-300 transponder from Bio Medic Data Systems (BMDS) was used to monitor body temperature.
Each mouse was dosed with liquid compositions through the in-dwelling catheter using an infusion pump (Harvard Apparatus). The mouse was infused until the temperature chip implanted in the skin registered a body temperature of 33° C. […] Once the animal's temperature dropped to 33° C. or below, the infusion was stopped and the mouse was transferred into a hypoxic atmosphere (4.0% O2) together with a control mouse.

C57BL/6 mice [2] = format: in vivo, mouse
C. elegans [3] = assay: Rate of egg-laying; format: in vivo
Description: Animals were picked as L4 from mixed-stage populations and allowed to develop for 20-30 hours in the same conditions at room temperature. Individual worms were then placed onto NGM plates with a 10 μL spot of OP50 food. The number of embryos laid in 3-5 hours was counted to determine the rate of egg-laying. To create an atmosphere with 2% O2, N2 was mixed with 5% O2 balanced with N2. Smart-Trak series 100 mass flow controllers (Sierra Instruments) were used to mix the gas and to split it into 2 atmospheric chambers. […] In each experiment, 10-15 individuals were included in each group. The data shown in Table 2 are from one experiment that is representative of at least three independent assays.

C. elegans [4] = assay: Lifespan in H2S-containing atmosphere; format: in vivo
Description: (§1) Growing Nematodes in H2S-Containing Atmospheres. Bristol strain N2 (wild-type) and mutant nematode strains were grown at room temperature on nematode growth medium (NGM) plates seeded with live E. coli OP50 food (48). Mutant strains obtained from the C. elegans genetic stock center were as follows: CB130, daf-2(e1370); DR26, daf-16(m26); VC520, isp-1(gk267); MQ130, clk-1(qm30); DA1116, eat-2(ad1116); VC199, sir-2.1(ok434). Plates were maintained in atmospheric chambers sealed with Dow Corning Vacuum Grease (Sigma). […] Gasses were hydrated using gas wash bottles (Fisher), and moved through ⅛ inch outer diameter FEP tubing (Cole Parmer) with connections by snap connectors (Cole Parmer), stainless steel quick connect fittings or compression fittings (Seattle Fluid Systems). […] All compressed gas mixtures used in this study were obtained from Byrne Gas and were certified standard to within 2% of indicated concentration. Flow tubes (Aalborg) were used to distribute the gas mixture to different chambers. Gas flow rate was 100 cc/m to small boxes (100-300 mL) and 800 cc/m to the large boxes (1-3 L) used to culture nematode strains at room temperature. At these flow rates, the gaseous environment of the atmospheric chambers is exchanged every 20-30 minutes. […] Data were collected using Chart software with a Powerlab data acquisition unit (ADInstruments) and analyzed with EXCEL.

mice = conditions: mouse, in vivo
Description: Experiments were stopped at 60 minutes, and animals still alive were returned to their cage.

C. elegans [5] = assay: Thermotolerance assay (survival at high temperature); format: in vivo
Description: as §1
Thermotolerance Assay. […] Care was taken to prevent the population from starving. Nematodes were picked from these mixed-stage populations as L4 larvae and allowed to develop for 24-48 h at room temperature; however, treated and control animals were always the same age. […] Groups of 20-30 animals were transferred to NGM plates without food and then placed into an atmospheric chamber perfused with the indicated gas at high temperature in an Echotherm 1N35 incubator (Torrey Pines Scientific, NIST traceable) or a VWR incubator model 2005 (VWR International). A ring of palmitic acid around the edge of the plate helped prevent the worms escaping the surface of the agar. […]

C. elegans [6] = assay: Brood size measurement; format: in vivo; conditions: moved to H2S, n=5
Text: Brood size measurement. To determine the number of viable progeny produced by nematodes, individual fourth-stage larvae (L4) were transferred to NGM plates with OP50 food at room temperature. Animals were moved daily until they quit laying fertilized eggs. Progeny were counted as L4/young adult.

[7] = 4.0% O2 after infusion until body temperature 33° C., test ended at 60 minutes
[8] = jugular vein infusion until body temperature of 33° C.

## OCCS [2-Mercapto-ethanol]
C57BL/6 mice [1]; mouse, in vivo
  toxicity: toxic
C57BL/6 mice [1]; mouse, in vivo, sc
  reduction of body (subcutaneous) temperature: reduced body temperature

## SCCOCCS [2-mercaptoethyl ether]
C57BL/6 mice [1]; infusion, primary screen
  reduction of body (subcutaneous) temperature: reduced body temperature
C57BL/6 mice [1]; mouse, in vivo
  toxicity: toxic

## CSC [dimethyl sulfide]
C57BL/6 mice [1]; infusion, primary screen
  reduction of body (subcutaneous) temperature: did not reduce subcutaneous temperature

## CC(O)=S [Thioacetic acid]
C57BL/6 mice [2]; lethal hypoxia 4% O2
  enhancement of survival in hypoxia: did not enhance survival in hypoxia
C57BL/6 mice [1]; mouse, in vivo, sc
  reduction of body (subcutaneous) temperature: reduced body temperature

## C[S-].[Na+] [sodium thiomethoxide]
C57BL/6 mice [2]; [7]
  survival in lethal hypoxia: 60 min
C57BL/6 mice [1]; [8]
  effective dose: 4.61 mmol/kg

## O=C(O)CS [thioglycolic acid]
C57BL/6 mice [1]; infusion, primary screen
  reduction of body (subcutaneous) temperature: reduced body temperature
C57BL/6 mice [1]; mouse, in vivo
  toxicity: toxic

## CS(=O)[O-].[Na+] [sodium methane sulfinate]
C57BL/6 mice [1]; infusion, primary screen
  reduction of body (subcutaneous) temperature: did not reduce subcutaneous temperature

## N#C[S-].[Na+] [sodium thiocyanate]
C57BL/6 mice [1]; [8]
  effective dose: 4.67 mmol/kg

## S [H2S, hydrogen sulfide]
C. elegans [3]; clk-1(qm30), assayed in 2% O2 + H2S
  average rate of egg-laying: 2.5 ± 1.0 embryos per hour
C. elegans [3]; clk-1(qm30), assayed in H2S
  average rate of egg-laying: 3.2 ± 1.1 embryos per hour
C. elegans [3]; unadapted (wild-type grown in room air), assayed in 2% O2 + H2S
  average rate of egg-laying: 4.5 ± 1.6 embryos per hour
C. elegans [3]; unadapted (wild-type grown in room air), assayed in H2S
  average rate of egg-laying: 8.3 ± 3.0 embryos per hour
C. elegans [4]; H2S-treated animals
  delay in reaching 75% mortality versus control population (maximum lifespan): 10 days
C. elegans [4]; raised in H2S until L4, monitored in room air (FIG. 3C)
  lifespan: 12.8 ± 0.7 days
mice
  recovery after survival in 5% O2: no noticeable motor or behavioral deficits
C. elegans [5]; 15 experiments, L4 to 3rd day adults, 33 to 37 C (FIG. 11A)
  fraction of H2S-treated animals alive when the last untreated control animal had expired (mean): 0.8
C. elegans [5]; 15 independent experiments, high temperature
  average of H2S-treated animals alive when all untreated animals had died: 77-80%
C. elegans [5]; grown in H2S before heat-shock, exposed to 35 C in room air (FIG. 2C)
  survival time at high temperature: 7.3 h
C. elegans [6]
  number of progeny: 227±18

## C[S+](C)[O-] [Dimethylsulfoxide]
C57BL/6 mice [1]; too high to be considered for pharmaceutical purposes
  effective dose: 10 % DMSO

## [SeH2] [sodium selenide]
C57BL/6 mice [1]; mouse, in vivo, sc
  reduction of body (subcutaneous) temperature: did not reduce subcutaneous temperature

## sodium sulfide
C57BL/6 mice [2]; mouse, in vivo
  survival in lethal hypoxia: 60 min
C57BL/6 mice [1]; mouse, in vivo
  effective dose: 0.79 mmol/kg

## OC1CCSCC1 [tetrahydrothiopyran-4-ol]
C57BL/6 mice [2]; [7]
  survival in lethal hypoxia: 15 min

## NCCS [cysteamine]
C57BL/6 mice [2]; [7]
  survival in lethal hypoxia: 45 min
C57BL/6 mice [1]; mouse, in vivo
  effective dose: 7.58 mmol/kg

## CC(=O)N[C@@H](CS)C(=O)O [N-acetyl-L-cysteine]
C57BL/6 mice [1]; infusion, primary screen
  reduction of body (subcutaneous) temperature: did not reduce subcutaneous temperature

## NCCCNCCSP(=O)(O)O [phosphorothioic acid S-(2-((3-aminopropyl)amino)ethyl)ester]
C57BL/6 mice [2]; mouse, in vivo
  enhancement of survival in hypoxia: did not enhance survival in hypoxia
C57BL/6 mice [1]; mouse, in vivo, sc
  reduction of body (subcutaneous) temperature: reduced body temperature

## N=C(N)[SeH] [selenourea]
C57BL/6 mice [2]; lethal hypoxia 4% O2
  enhancement of survival in hypoxia: did not enhance survival in hypoxia
C57BL/6 mice [1]; mouse, in vivo, sc
  reduction of body (subcutaneous) temperature: reduced body temperature
